Values of other authors in patent US10369185B2, “Methods and compositions for enhancement of ability to concentrate” (KYOWA HAKKO BIO CO., LTD., priority 2014, dated 2019).

Details: alanylglutamine compared to glutamine; cited from earlier work

SMILES: NC(=O)CC[C@H](N)C(=O)O [glutamine, reference compound]
- solubility in aqueous solutions: low-solubility
